What was measured:
[1] = Solubility of dexamethasone forms; assay type: physicochemical
auditory hair cells = test: Organ of Corti photomicrographs thirty days after electrode insertion trauma; assay type: in vivo, guinea pig; details: lower middle turn of cochlea, thirty days after EIT, FIG. 11 microphotograph D
Source text: The efficacy of DXMb was also studied by the Applicants in relationship to preserving residual hearing and internal nerve structures within the cochlea. In the study performed by the Applicants, 88 ears of 44 pigmented guinea pigs of 250 to 300 grams were randomly assigned to one of four groups as follows: group 1 corresponded to the contralateral, unoperated ears from groups 2 to 4 animals (n=44). Group 2 (n=15): electrode insertion trauma (EIT); these ears underwent EIT only via a cochleostomy and then immediate closure. Group 3 (n=15): EIT+artificial perilymph (EIT+AP) treated ears received EIT and immediately after trauma, insertion of a microcatheter into the cochleostomy site with AP perfused into the scala tympani (ST) for a period of 8 days. Group 4 (n=14): EIT dexamethasone base (EIT=DXMb) treated animals underwent EIT followed immediately by insertion of a microcatheter into the cochleostomy with ST perfusion of DXMb ([…]) in AP for a period of 8 days. Hearing measurements were performed before surgery, as well as on post-EIT days 0, 3, 7, 14, and 30. Tone bursts of 0.5, 1, 4, and 16 kHz were delivered to the ear at a rate of 29 Hz. The intensity of the stimulation was decreased by 10 dB sound pressure level (SPL) decrements until no auditory brainstem response was identified.
The organization of hair cells is in three distinct rows. […]

[2] = In-vivo comparison of DXMb and DEX salt delivered over a week
Method: In one study performed by the Applicants, a comparison of DXMb and DEX salt was performed in an in-vivo model over the prior of a week. […] This surprising potency allows for increased therapeutic effects without increasing the volume of the drug or the size of the intracochlear lead.

For `C[C@@H]1C[C@H]2[C@@H]3CCC4=CC(=O)C=C[C@]4(C)[C@@]3(F)[C@@H](O)C[C@]2(C)[C@@]1(O)C(=O)CO` [DXMb, dexamethasone base], the “solubility in aqueous preparations” value ([1]; aqueous preparations) was “limited solubility in aqueous preparations”, the “solubility in organic solvents” value ([1]; organic solvents) was “highly soluble in organic solvents” and the “hair cells and hair cell structure” value (auditory hair cells) was “substantially similar to that of the control group”. The “effectiveness compared with DEX salt” value ([2]; DXMb 1 μL/hr at 70 μL/ml vs DEX salt 100 μL/ml at 1 μL/hr, in-vivo model, one week) was “just as effective” and the “potency compared with salt forms of dexamethasone” value ([2]; administered into the intracochlear space after implantation surgeries) was “surprisingly more potent than salt forms of dexamethasone”.

Source: US20130079749A1, “Modular Drug Delivery System for Minimizing Trauma During and After Insertion of a Cochlear Lead” (ADVANCED BIONICS, LLC, priority 2007, published 2013)
